The source made the active and inactive calls.
Columns and labels:
Cytochrome P450 2C19 = Cytochrome P450 2C19 (Homo sapiens, UniProt P33261); experiment: Cytochrome panel assay with activity outcomes. Panel member name: p450-cyp2c19 Compounds with AC50 equal or less than 10 uM are considered active; format: functional
Cytochrome P450 2C9 = Cytochrome P450 2C9 (Homo sapiens, UniProt P11712)
Cytochrome P450 2D6 = Cytochrome P450 2D6 (Homo sapiens, UniProt P10635);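 also: CYP2D6 member of a cytochrome P450 panel assay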
BJ [1] = experiment: BJ-TERT fibroblast viability loss – cell-based, RAS-independent, luminescence, dose response (AID 1933); format: functional; conditions: Homo sapiens
BJ [2] = experiment: cells; format: functional, cell-based; conditions: Homo sapiens
[3] = DRD fibroblast viability loss – cell-based, non-viral oncogenic, luminescence, dose response (AID 1934); format: functional; conditions: Homo sapiens
[4] = HEK-293T viability loss after treatment – luminescence, T-cell screen hits, cytotoxicity control for TCR NF-kB inhibitor project, dose response (AID 489026); format: functional, cell-based;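 also: cells exposed to compound about 14 hours before the viability readout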
[5] = system: Streptococcus sp. 'group A'; experiment: Streptococcus pyogenes SK(-)GAS viability under kanamycin – luminescence, BacTiterGlo, confirmation, counter-screen for streptokinase expression inhibitor project, dose response (AID 1900); format: functional, organism-based
Streptococcus = experiment: GAS UMAA2166 growth inhibition – luminescence, BacTiterGlo, counter-screen for streptokinase expression inhibitor project, dose response (AID 1915); format: functional, organism-based;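 also: potency for reduction of bacterial viability or growth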
Nonstructural protein 1 = Nonstructural protein 1 (Influenza A virus, UniProt Q194T2); format: functional, Influenza A virus (A/California/07/2009(H1N1))
[6] = target: T1, Replicative DNA helicase DnaB (Mycobacterium tuberculosis, UniProt P9WMR3); experiment: DnaB intein splicing inhibitors, dose response, biochemical, cell-free fluorescence (AID 449749); format: functional
T1 sequence (P9WMR3 whole entry): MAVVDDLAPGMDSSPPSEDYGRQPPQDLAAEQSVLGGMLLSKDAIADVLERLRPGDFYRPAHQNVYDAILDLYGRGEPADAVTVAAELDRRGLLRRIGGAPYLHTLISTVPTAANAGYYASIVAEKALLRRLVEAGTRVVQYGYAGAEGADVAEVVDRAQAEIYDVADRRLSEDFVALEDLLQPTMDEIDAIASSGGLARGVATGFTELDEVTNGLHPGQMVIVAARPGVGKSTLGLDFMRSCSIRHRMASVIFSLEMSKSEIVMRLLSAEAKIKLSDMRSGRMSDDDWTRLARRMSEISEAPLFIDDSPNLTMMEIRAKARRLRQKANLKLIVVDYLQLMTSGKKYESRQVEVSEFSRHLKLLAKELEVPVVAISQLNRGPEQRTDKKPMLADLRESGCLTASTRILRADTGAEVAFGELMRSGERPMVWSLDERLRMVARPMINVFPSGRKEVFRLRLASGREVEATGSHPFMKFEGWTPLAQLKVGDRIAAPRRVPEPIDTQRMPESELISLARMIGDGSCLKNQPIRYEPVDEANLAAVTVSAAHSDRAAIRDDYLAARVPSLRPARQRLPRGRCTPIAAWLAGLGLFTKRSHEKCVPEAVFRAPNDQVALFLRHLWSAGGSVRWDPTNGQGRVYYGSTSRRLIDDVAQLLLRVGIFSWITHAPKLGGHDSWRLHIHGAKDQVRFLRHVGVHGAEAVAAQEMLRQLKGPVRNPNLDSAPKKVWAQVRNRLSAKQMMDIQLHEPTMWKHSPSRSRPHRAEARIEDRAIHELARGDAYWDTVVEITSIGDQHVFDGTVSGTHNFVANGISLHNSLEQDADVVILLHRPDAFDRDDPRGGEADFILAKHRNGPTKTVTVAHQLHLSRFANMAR

Protein RecA = target: T2, Protein RecA (Mycobacterium tuberculosis, UniProt P9WHJ3); experiment: Fluorescence Cell-Free Homogeneous Dose Retest to Identify Inhibitors of RecA-Intein Splicing Activity. [Related pubchem assays (depositor defined):AID2097, AID2223, AID489010, AID492950]; format: functional
T2 sequence (P9WHJ3 whole entry): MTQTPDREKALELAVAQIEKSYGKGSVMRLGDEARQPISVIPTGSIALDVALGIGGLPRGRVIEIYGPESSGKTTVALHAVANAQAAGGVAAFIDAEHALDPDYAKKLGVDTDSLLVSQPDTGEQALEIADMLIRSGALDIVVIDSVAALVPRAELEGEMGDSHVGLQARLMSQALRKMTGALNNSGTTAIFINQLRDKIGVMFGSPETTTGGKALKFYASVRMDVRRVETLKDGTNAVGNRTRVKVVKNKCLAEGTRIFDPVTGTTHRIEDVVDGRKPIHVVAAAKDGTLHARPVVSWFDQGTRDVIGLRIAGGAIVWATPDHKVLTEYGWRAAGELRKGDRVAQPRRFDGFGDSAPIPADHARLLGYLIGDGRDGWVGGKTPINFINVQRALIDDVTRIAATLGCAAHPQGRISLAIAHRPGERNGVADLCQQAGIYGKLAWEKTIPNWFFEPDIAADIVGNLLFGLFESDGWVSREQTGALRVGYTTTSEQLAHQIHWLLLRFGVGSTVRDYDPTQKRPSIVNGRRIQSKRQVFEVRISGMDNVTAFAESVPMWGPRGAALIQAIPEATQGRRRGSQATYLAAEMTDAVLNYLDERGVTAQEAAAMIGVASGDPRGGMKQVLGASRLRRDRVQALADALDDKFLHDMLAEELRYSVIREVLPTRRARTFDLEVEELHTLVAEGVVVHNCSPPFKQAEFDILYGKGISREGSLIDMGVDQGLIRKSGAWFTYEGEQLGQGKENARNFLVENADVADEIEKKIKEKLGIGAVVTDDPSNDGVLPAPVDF

Cytochrome P450 1A2 = target: T3, Cytochrome P450 1A2 (Homo sapiens, UniProt P05177);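 also: PubChem cytochrome P450 panel assay, CYP1A2 panel member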
T3 sequence (P05177 whole entry): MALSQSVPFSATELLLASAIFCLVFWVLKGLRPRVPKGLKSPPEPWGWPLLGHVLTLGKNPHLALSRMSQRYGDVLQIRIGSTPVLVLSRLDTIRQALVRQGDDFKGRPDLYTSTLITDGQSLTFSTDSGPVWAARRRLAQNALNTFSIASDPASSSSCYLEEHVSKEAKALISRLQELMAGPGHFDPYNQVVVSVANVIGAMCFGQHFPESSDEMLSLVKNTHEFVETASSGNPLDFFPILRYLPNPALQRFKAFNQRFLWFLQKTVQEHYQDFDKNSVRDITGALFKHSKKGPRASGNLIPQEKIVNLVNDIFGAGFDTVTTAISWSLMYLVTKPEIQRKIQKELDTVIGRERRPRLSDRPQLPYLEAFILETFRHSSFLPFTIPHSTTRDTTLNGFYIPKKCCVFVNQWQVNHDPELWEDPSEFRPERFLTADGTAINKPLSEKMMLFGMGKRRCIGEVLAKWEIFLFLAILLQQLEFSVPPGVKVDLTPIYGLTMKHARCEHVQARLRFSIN

[7] = target: T4, DNA repair and recombination protein RAD54-like (Homo sapiens, UniProt Q92698); experiment: RAD54 Holliday junction migration blockers – biochemical, fluorescence, cherry-picked samples, dose series, confirmation (AID 651657); format: functional
T4 sequence (Q92698 whole entry): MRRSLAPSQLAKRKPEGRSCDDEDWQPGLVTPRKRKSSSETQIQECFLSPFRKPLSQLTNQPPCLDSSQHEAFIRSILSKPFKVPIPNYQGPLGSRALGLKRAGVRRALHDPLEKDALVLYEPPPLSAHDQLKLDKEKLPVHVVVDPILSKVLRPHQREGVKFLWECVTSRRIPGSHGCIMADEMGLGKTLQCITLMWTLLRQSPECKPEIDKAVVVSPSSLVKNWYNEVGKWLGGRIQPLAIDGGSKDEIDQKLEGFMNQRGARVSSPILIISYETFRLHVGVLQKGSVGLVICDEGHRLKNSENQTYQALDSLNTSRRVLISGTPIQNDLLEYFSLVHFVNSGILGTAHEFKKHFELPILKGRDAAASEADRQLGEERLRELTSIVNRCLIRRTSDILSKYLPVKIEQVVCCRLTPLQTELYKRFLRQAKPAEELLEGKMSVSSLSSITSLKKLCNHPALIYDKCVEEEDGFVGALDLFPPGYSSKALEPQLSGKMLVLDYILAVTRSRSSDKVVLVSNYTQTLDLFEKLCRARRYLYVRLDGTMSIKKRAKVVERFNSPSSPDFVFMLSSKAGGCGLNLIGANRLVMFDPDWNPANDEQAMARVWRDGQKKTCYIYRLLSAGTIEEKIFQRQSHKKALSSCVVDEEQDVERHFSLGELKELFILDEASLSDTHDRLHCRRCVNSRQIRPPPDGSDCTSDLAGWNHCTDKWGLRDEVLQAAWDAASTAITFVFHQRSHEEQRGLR

SUMO-activating enzyme = SUMO-activating enzyme (Homo sapiens, UniProt Q9UBT2); experiment: blockers of UBC9-mediated SUMO conjugation – biochemical, AlphaScreen, SUMOylation inhibitor project, confirmation (AID 2018); format: functional
[8] = target: Dual specificity tyrosine-phosphorylation-regulated kinase 1A (Rattus norvegicus, UniProt Q63470); format: biochemical, Homo sapiens
[9] = Luminescence Cell-Based Dose Confirmation HTS to Identify Activators of 5'UTR Stem-Loop Driven Alpha-Synuclein mRNA Translation in H4 Neuroglioblastoma Cells. [Related pubchem assays: 1829 (Project Summary), 1814 (Primary HTS)]; format: functional
[10] = Luminescence Cell-Based Dose Response HTS to Identify Activators of Luciferase Translation or Activity in H4 […] Cells. [Related pubchem assays: 1829 (Project Summary), 1814 (Primary HTS)]; format: functional
H4 = experiment: Luminescence Cell-Based Dose Response HTS to Identify Activators of 5'UTR Stem-Loop Driven Prion Protein mRNA Translation in H4 Neuroglioblastoma Cells. [Related pubchem assays: 1829 (Project Summary), 1814 (Primary HTS)]; format: functional; conditions: Homo sapiens
Vero = experiment: cells; format: functional; conditions: Chlorocebus sabaeus

SUMO-activating enzyme, sequence (Q9UBE0 whole entry): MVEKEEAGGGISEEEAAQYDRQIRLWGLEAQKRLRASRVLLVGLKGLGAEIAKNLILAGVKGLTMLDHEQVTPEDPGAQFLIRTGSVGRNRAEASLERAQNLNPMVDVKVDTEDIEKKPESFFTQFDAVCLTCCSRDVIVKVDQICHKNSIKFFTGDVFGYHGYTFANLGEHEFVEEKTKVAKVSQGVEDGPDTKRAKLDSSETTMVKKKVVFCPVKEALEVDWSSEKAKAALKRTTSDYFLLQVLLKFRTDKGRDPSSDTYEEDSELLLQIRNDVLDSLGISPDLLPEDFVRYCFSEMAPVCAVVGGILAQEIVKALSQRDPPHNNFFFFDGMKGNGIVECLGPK
SUMO-activating enzyme, sequence (Q9UBT2 whole entry): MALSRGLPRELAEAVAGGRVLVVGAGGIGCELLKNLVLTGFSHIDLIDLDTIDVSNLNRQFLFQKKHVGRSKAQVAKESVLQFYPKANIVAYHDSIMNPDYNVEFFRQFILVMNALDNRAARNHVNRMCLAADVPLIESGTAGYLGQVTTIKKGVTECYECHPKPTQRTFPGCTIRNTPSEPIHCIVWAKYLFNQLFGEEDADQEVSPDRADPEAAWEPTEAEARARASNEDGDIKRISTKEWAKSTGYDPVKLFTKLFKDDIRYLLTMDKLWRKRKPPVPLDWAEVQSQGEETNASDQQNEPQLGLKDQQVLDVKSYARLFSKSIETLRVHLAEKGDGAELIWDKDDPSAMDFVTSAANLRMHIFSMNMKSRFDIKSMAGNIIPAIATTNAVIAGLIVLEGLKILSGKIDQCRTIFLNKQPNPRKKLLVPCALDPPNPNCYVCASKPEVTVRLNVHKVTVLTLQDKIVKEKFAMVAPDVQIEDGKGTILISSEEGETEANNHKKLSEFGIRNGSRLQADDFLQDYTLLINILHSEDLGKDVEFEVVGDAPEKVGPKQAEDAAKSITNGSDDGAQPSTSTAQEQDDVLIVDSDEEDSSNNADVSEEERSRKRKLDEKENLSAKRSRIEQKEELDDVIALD
Cytochrome P450 2D6, sequence (P10635 whole entry): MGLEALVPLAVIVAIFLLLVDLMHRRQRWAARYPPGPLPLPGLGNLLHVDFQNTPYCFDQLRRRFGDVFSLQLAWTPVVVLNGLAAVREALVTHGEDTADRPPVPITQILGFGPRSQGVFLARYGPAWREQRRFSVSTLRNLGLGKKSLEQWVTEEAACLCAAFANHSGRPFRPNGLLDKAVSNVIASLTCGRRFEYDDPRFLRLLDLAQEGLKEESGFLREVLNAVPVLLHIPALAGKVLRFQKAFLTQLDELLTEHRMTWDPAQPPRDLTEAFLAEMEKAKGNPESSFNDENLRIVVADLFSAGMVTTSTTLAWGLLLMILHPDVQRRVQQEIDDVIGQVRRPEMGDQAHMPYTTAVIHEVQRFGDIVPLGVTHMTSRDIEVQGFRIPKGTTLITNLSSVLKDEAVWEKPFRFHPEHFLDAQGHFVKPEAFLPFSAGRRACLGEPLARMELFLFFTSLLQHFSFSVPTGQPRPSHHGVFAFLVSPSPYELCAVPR
Cytochrome P450 2C19, sequence (P33261 whole entry): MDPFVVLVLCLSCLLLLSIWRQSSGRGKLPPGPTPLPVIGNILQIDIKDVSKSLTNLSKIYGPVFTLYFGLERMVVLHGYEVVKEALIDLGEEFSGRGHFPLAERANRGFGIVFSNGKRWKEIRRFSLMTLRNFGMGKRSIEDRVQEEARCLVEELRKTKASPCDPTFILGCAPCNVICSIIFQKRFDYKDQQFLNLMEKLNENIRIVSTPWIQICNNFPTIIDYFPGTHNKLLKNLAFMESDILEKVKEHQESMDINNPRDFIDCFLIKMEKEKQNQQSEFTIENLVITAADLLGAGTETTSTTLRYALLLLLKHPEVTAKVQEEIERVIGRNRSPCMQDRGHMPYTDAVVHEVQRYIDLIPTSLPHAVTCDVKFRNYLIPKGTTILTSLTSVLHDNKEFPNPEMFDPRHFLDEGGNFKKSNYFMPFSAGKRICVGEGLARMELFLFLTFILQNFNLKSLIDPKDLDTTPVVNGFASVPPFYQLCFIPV
Cytochrome P450 2C9, sequence (P11712 whole entry): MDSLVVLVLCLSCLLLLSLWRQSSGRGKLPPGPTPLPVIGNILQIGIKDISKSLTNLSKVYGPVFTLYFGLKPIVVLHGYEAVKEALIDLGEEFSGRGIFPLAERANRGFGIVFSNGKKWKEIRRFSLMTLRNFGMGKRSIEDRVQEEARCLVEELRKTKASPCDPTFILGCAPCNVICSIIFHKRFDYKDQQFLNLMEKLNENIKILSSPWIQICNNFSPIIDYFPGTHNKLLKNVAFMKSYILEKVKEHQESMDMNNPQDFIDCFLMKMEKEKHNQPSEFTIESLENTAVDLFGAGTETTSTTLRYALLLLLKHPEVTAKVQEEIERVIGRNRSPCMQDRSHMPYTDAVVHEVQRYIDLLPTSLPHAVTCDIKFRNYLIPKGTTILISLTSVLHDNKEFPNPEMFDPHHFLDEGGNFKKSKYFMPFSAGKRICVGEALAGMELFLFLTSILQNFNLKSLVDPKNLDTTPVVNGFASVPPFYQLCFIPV
Nonstructural protein 1, sequence (Q194T2 whole entry): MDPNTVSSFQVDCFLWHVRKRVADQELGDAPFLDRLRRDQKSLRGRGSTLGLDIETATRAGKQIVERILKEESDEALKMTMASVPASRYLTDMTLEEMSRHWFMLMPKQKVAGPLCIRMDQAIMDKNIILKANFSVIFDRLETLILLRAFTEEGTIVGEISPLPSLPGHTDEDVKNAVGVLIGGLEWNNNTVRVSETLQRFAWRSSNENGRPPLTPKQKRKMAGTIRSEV

In the case of `COc1ccc(/C=N/N(C(C)=O)c2nc(-c3ccc(C)cc3)cs2)cc1`, the AC50 (Cytochrome P450 2C19; read-out: AC50) is reported as 0.447 µM (inconclusive), the AC50 (Cytochrome P450 2C9) is reported as 3.16 µM (inconclusive) and the AC50 (Cytochrome P450 2D6) is reported as “inconclusive”.
With `COc1cc(-c2noc(C)c2-c2ccc(N(C)C)nc2)cc(OC)c1OC` the EC50 (BJ [1]) was 0.174 µM (active), the EC50 (BJ [2]) was 15.7 µM (inconclusive) and the EC50 [3] was 4.06 µM (inconclusive). For the same molecule, the IC50 [4] was > 80 µM (inactive).
With `O=C(NC(=S)NNC(=O)c1ccccc1O)c1ccco1` the EC50 [5] was 3.27 µM (active), the EC50 (Streptococcus) was 7.67 µM (active) and the IC50 (Nonstructural protein 1) was 8.7 µM (active). The AC50 [6] was 95.2 µM (active) and the EC50 (Protein RecA) was 114 µM (inconclusive).
For `CN(C)c1ncnc2c1ncn2CCn1cnc2c(N(C)C)ncnc21`, the AC50 (Cytochrome P450 1A2) was 6.31 µM (inconclusive) and the AC50 (Cytochrome P450 2D6) was “inconclusive”.
For `CN(C)CCNC(=O)c1cc2c(=O)n(C)c3ccccc3c2n1C`, the AC50 [7] was 16.2 µM (active).
For `Cc1ccc(C(=O)Nc2sc3c(c2C(=O)NCc2ccco2)CCCC3)cc1`, the IC50 (SUMO-activating enzyme) was 29.9 µM (active).
With `O=c1c(O[C@@H]2O[C@H](CO)C(O)C2O)c(-c2ccc(O)c(O)c2)oc2cc(O)cc(O)c12` (stereo partly drawn) the AC50 [8] was 18 µM (active).
With `COc1cc2cc(c1Cl)N(C)C(=O)C[C@H](OC(=O)C(C)C)[C@]1(C)O[C@@H]1[C@@H](C)[C@H]1C[C@](O)(NC(=O)O1)[C@@H](OC)/C=C\C=C(\C)C2` the AC50 (Cytochrome P450 2C19) was “inconclusive” and the AC50 (Cytochrome P450 2D6) was “inconclusive”.
For `CCc1ccc2nc(NC(=O)C3CSC4(C)CCC(=O)N34)sc2c1` (stereo not drawn), the EC50 [9] was > 120 µM (not active), the EC50 [10] was 19.6 µM (active) and the EC50 (H4) was 6.99 µM (active). For the same molecule, the AC50 [8] was 7.62 µM (active).
With `CC(C)(C)c1ccc(OC(=O)Cn2c(C(F)(F)F)nc3ccccc32)cc1` the AC50 (Cytochrome P450 2C19) was “inconclusive”, the AC50 (Cytochrome P450 2C9) was 0.891 µM (inconclusive) and the AC50 (Cytochrome P450 2D6) was “inconclusive”.
For `O=C(Nc1ccc2ccccc2n1)c1ccccc1`, the AC50 [8] was 77.5 µM (active).
With `O=C(O)c1cc2ccccc2c(S(=O)(=O)O)c1O` the AC50 (Cytochrome P450 2D6) was “inconclusive”.
In the case of `Cc1nn(-c2ccccc2)c2sc(C(=O)NNC(=O)COc3ccccc3)cc12`, the IC50 (SUMO-activating enzyme) is reported as 33.6 µM (active).
With `CCNCCNC(=O)c1c(O)c2cccc3c2n(c1=O)CCC3` the AC50 [7] was 86.3 µM (active).
For `CC1CCC(C(C)C)C2=C1C(C#N)(C#N)C(C#N)(C#N)C(c1ccccc1)N2` (stereo not drawn), the CC50 (Vero) was 16.7 µM (active) and the AC50 [8] was 5.69 µM (active).
For `O=C(N/N=C\c1cn[nH]c1-c1ccc(Cl)cc1)c1cccs1`, the IC50 (SUMO-activating enzyme) was > 100 µM (inactive).

Source: ChEMBL document CHEMBL1201862, “PubChem BioAssay data set” (2004)
